In brackets after ≈: the same amount, converted by molar mass. Several values for one entry are separate records, joined by “and”; a condition that tells them apart may be missing. Equal values may be shown once. Where a name gives a salt, the structure may show the parent alone. Read-outs that look alike come from different tables or passages of the source. One block for each compound: values may come before it.
Columns and labels:
[1] = Solubility studies (saturated solubility, HPLC); type: physicochemical; conditions: for solubility: aqueous with cosolvent or surfactant or cyclodextrin, thermodynamic from solid
Description: (§1) The saturated solubilities of endoxifen were determined in a mixture of absolute ethanol/water (70:30, w/w) by shaking an excess amount of drug in 1 ml of the co-solvent system for at least 24 hours at room temperature. The concentrations of the saturated solutions were determined by HPLC analysis after appropriate dilution.
as §1, with “clomifene citrate” for “endoxifen”, “series” for “mixture”, “of” for “of absolute”, “mixtures (40:60, 50:50, 60:40 and 70:30,” for “(70:30,”, “0.6” for “1”, “temperature. […]” for “temperature.”
The concentrations of the saturated solutions were determined by HPLC analysis after appropriate dilution.
as §1, with “toremifene” for “endoxifen”, “series” for “mixture”, “of” for “of absolute”, “mixtures (40:60, 50:50, 60:40 and 70:30,” for “(70:30,”, “temperature. […]” for “temperature.”

[2] = Stability in analysis medium (cetrimide solution, 3%); type: physicochemical; conditions: 3% cetrimide solution
[3] = Skin permeation study in side-by-side diffusion cells; type: in vitro ADME, pig
Description: Skin permeation studies were carried out using opaque side-by-side diffusion cells with an effective diffusion area of 0.71 cm^2. […] The receptor solution was a 3% w/v cetrimide solution and allowed sink conditions to be maintained. The receptor phase was magnetically stirred at 100 rpm. Dermatomed abdominal pig skin (750 μm) was used. Skin was allowed to hydrate with isotonic saline solution for 1 h before the experiment was started. […] Experiments were performed under complete occlusion. Post-application, at scheduled times (1, 9, 20 and 24 hours), 1 ml samples were taken from the receiver compartment and replaced with the same volume of fresh, temperature-equilibrated receptor fluid. Samples were filtered through 0.45 μm PVDF membrane filters. The amount of endoxifen in the samples was determined by HPLC using the method described above.

[4] = Solubility studies (saturated solubility, HPLC); type: physicochemical; conditions: 3% w/v cetrimide solution, aqueous with cosolvent or surfactant or cyclodextrin, thermodynamic from solid, room temperature
[5] = 1 h, saturated solution of the drug in 70:30 w/w ethanol-water, — not defined here (Table 2: below LOD)
[6] = ethanol/water 70:30 w/w co-solvent system, room temperature, read-out: Solubility in ethanol:water (70:30 w/w)
[7] = 1 hr, saturated solution in 70:30 w/w ethanol-water, donor 30.46 mg/mL

solubility ([1]; 3% w/v cetrimide solution, room temperature, read-out: Solubility in 3% cetrimide solution): 302 ± 14 µg/mL (≈ 744 µM)
Saturated solubility, Expt 1-3 ([1]; EtOH:Water 40:60 w/w, single experiments): 75.4 µg/mL and 74 µg/mL
Saturated solubility, Expt 1-3 ([1]; EtOH:Water 50:50 w/w, single experiments): 333 µg/mL and 324 µg/mL
Saturated solubility, Expt 1-3 ([1]; EtOH:Water 60:40 w/w, single experiments): 1063 µg/mL and 1009 µg/mL
Saturated solubility, Expt 1-3 ([1]; EtOH:Water 70:30 w/w, single experiments): 2698 µg/mL and 2623 µg/mL
solubility ([1]; ethanol/water 40:60 w/w co-solvent system, EtOH:Water 40:60 w/w, n=3, read-out: Saturated solubility, Average concentration ± SD): 74.7 ± 1.1 µg/mL (≈ 184 µM)
solubility ([1]; ethanol/water 40:60 w/w co-solvent system, EtOH:Water 40:60 w/w, single experiments, read-out: Saturated solubility, Expt 1-3): 74.8 µg/mL (≈ 184 µM)
solubility ([1]; ethanol/water 50:50 w/w co-solvent system, EtOH:Water 50:50 w/w, n=3, read-out: Saturated solubility, Average concentration ± SD): 335 ± 15 µg/mL (≈ 825 µM)
solubility ([1]; ethanol/water 50:50 w/w co-solvent system, EtOH:Water 50:50 w/w, single experiments, read-out: Saturated solubility, Expt 1-3): 350 µg/mL (≈ 862 µM)
solubility ([1]; ethanol/water 60:40 w/w co-solvent system, EtOH:Water 60:40 w/w, n=3, read-out: Saturated solubility, Average concentration ± SD): 1050 ± 37 µg/mL (≈ 2600 µM)
solubility ([1]; ethanol/water 60:40 w/w co-solvent system, EtOH:Water 60:40 w/w, single experiments, read-out: Saturated solubility, Expt 1-3): 1090 µg/mL (≈ 2680 µM)
solubility ([1]; ethanol/water 70:30 w/w co-solvent system, EtOH:Water 70:30 w/w, n=3, read-out: Saturated solubility, Average concentration ± SD): 2730 ± 124 µg/mL (≈ 6720 µM)
solubility ([1]; ethanol/water 70:30 w/w co-solvent system, EtOH:Water 70:30 w/w, single experiments, read-out: Saturated solubility, Expt 1-3): 2860 µg/mL (≈ 7050 µM)
Stability in analysis medium ([2]; 24 hours): stable
cumulative permeation, Mean (±SD) [3, 5]: 3.38 μg/cm^2
cumulative permeation, single cells [3, 5]: 3.38 μg/cm^2
cumulative permeation, Mean (±SD) ([3]; 9 h, saturated solution of the drug in 70:30 w/w ethanol-water, — not defined here (Table 2: below LOD)): 1.53 ± 2.6 μg/cm^2
cumulative permeation, Mean (±SD) ([3]; 20 h, saturated solution of the drug in 70:30 w/w ethanol-water): 3.89 ± 3.2 μg/cm^2
SMILES: CN(C)CCOc1ccc(/C(=C(/CCCl)c2ccccc2)c2ccccc2)cc1 [toremifene]

solubility [1, 6]: 47400 ± 1700 µg/mL
Stability in analysis medium ([2]; 24 hours): stable
cumulative permeation, Mean (±SD) ([3]; 20 h, saturated solution in 70:30 w/w ethanol-water, donor 45.93±[…]): 0.62 ± 0.37 μg/cm^2
solubility ([4]; n=2): 8900 ± 200 µg/mL
SMILES: CC/C(=C(/c1ccc(OCCN(C)C)cc1)c1cccc(O)c1)c1ccccc1 [droloxifene citrate, 3-[(1E)-1-[4-[2-(Dimethylamino)ethoxy]phenyl]-2-phenyl-1-butenyl]phenol]

solubility [1, 6]: 38700 µg/mL (≈ 104000 µM)
Stability in analysis medium ([2]; 24 hours): stable
experimental permeation after 24 hours relative to in silico prediction ([3]; 37.29 μg/cm^2 versus about 0.98 μg/cm^2 in 24 hours): 40 times higher
cumulative permeation, Mean (±SD) ([3]; 9 hr, saturated solution in 70:30 w/w ethanol-water, donor 30.46 mg/mL): 0.31 ± 0.36 μg/cm^2
cumulative permeation, Mean (±SD) ([3]; 20 hr, saturated solution in 70:30 w/w ethanol-water, donor 30.46 mg/mL): 17.24 ± 15.13 μg/cm^2
solubility [4]: 6260 ± 280 µg/mL (≈ 16800 µM)
SMILES: CC/C(=C(\c1ccc(O)cc1)c1ccc(OCCNC)cc1)c1ccccc1 [endoxifen, 4-hydroxy-N-desmethyl-tamoxifen]
cumulative permeation, Mean (±SD) [3, 7]: — ((—) below the limit of detection (LOD) of 30 ng/ml.)
cumulative permeation, single cells [3, 7]: — ((—) below the limit of detection (LOD) of 30 ng/ml.)

Stability in analysis medium ([2]; 30 hours): stable
cumulative permeation, single cells ([3]; 9 hr, saturated solution in 70:30 v/v ethanol-water, — not defined here (Table 2: below LOD)): 4.1 μg/cm^2 and 3.3 μg/cm^2
cumulative permeation, Average (±SD) ([3]; 20 hr, saturated solution in 70:30 v/v ethanol-water): 8.3 ± 4.7 μg/cm^2
cumulative permeation, Average (±SD) ([3]; 24 hr, saturated solution in 70:30 v/v ethanol-water): 12.5 ± 6.3 μg/cm^2
cumulative permeation, Average (±SD) ([3]; 24 hr, saturated solution in 70:30 v/v ethanol-water, listed as 4-OH tamoxifen): 12.5 μg/cm^2
SMILES: CCC(=C(c1ccc(O)cc1)c1ccc(OCCN(C)C)cc1)c1ccccc1 [4-OH Tamoxifen, 1-[4-(2-N-dimethylaminoethoxy)phenyl]-1-(4-hydroxyphenyl)-2-phenylbut-1-ene]

Reference: patent publication US20120010245A1, “TRANSDERMAL PHARMACEUTICAL COMPOSITIONS COMPRISING A SERM” (BESINS HEALTHCARE LUXEMBOURG SARL, priority 2008, published 2012)
